Data on three compounds can be found in PMC4748848, “Pharmacokinetic/Toxicity Properties of the New Anti-Staphylococcal Lead Compound SK-03-92” (Antibiotics, 2015).

Molecules are shown by their SMILES. In brackets after ≈: the same amount, converted by molar mass. Several values for one entry are separate records, joined by “and”; a condition that tells them apart may be missing. Identical values can stand only once. Entries after “also recorded” stand apart in the source; their conditions may differ. Like-named read-outs stand apart in the source and are kept apart here.

One data set relates to plasma proteins. Description: Plasma protein binding assay. It counts as in vitro ADME, mice. Conditions: mouse plasma; read-out: bound to plasma proteins (converted). Here is the method: Plasma collected from EDTA treated blood from six SK-03-92 dosed mice was added to methyl tert-butyl ether (MTBE) to precipitate the proteins. The precipitated proteins were separated from the remainder of the plasma by centrifugation (14,000× g for 20 min) through a Microcon 10K filter (Millipore) and dried under a stream of nitrogen gas. The dried product was suspended in 62% acetonitrile/38% ddH2O and the AUC was quantified and correlated with the initial concentration of SK-03-92 present in the plasma.

Data set [1] in a line: Multi-dosing PK, two doses per day for three days. The format is in vivo. Conditions: mice. Here is the method:
(§1) First, a five-day PK study with SK-03-92 orally administered to female 5-6 week old BALB/c mice was conducted. Three mice received 300 μL of blank vehicle by oral administration. Doses of 100 μg/g SK-03-92 were given orally each day in the vehicle. Blood was collected from three mice at time points 15, 30, 45, 60, 75, and 90 min after administration. Body weight was monitored every day before SK-03-92 administration. Plasma was prepared and stored at −70 °C until analyzed by HPLC. In an extension of this PK study to two-weeks following oral administration of SK-03-92, six mice were dosed in the test (SK-03-92) arm and six vehicle control mice in the other arm. Lastly, a multi-dosing PK analysis was done using two 51-μg/g doses of SK-03-92 per day (given four hours apart) over the course of three days in five mice.

Another data set can be described thus: Single dose PK assay, ip. It counts as in vivo, BALB/c mice. Conditions: mice. As for the experimental part: An initial single dose PK experiment was performed using 100 μg/g of formulated SK-03-92 administered ip to twenty-one female, 5–6 week old BALB/c mice (7 per cohort for 3 cohorts, NCI) under parameters established previously. Three animals were used as a control group and received blank vehicle, whereas three mice per time point received 100 μg/g SK-03-92 ip and were sacrificed with blood collected at the 15, 30, 45, 60, 75, and 90 min time points by warming the tails of the mice in warm water, lancing the lateral saphenous tail vein, and collecting the blood (up to 150 μL) into microvette tubes (Sarstedt) containing EDTA or terminal bleed into vacucontainers containing EDTA as an anti-coagulant. Plasma was separated from packed blood cells by centrifugation (600× g) and stored at −70 °C until needed for HPLC analysis. Samples were analyzed with a Shimadzu Prominence HPLC system (Kyoto, Japan) with a Halo C18 column (MAC-MOD Analytical Inc., Chadds Ford, PA, USA). A mobile phase of 62% acetonitrile/38% water, isocratic program of 62% acetonitrile for 20 min, and flow rate of 0.75 mL/min with an injection volume of 10 μL and a retention time of 5.4 min were used. The standard curve for SK-03-92 was linear from 0.0098 to 2.5 μg/mL in plasma. Each chromatogram was collected and integrated to estimate the peak area of analyte by EZ Chrom® software (version.1.0, Agilent Technologies Inc., Santa Clara, CA, USA). The ratio of peak area of SK-03-92 was calculated to estimate the drug concentration(s) using a pre-built calibration curve. Major pharmacokinetic parameters were calculated using the noncompartmental analysis module of WinNonlin® (version 5.1, Pharsight Corp., Princeton, NJ, USA) under sparsely sampling mode.

A short description of data set [2]: Relative bioavailability / single dose PK, oral. The following applies: mice. The format is in vivo, BALB/c mice.
The subject of data set [3] is S. aureus (including MRSA and VISA strains). Further details: method as in PMID 21739106. Conditions: cited from earlier work.
Data set [4] can be described thus: Solubility in vehicles by HPLC. The format is physicochemical. Conditions: for solubility: HPLC. As for the experimental part:
An HPLC method was developed on a Halo C18 4.6 × […], 2.7 μm column (MAC-MOD Analytical Inc., Chadds Ford, PA, USA) for the detection and quantitation of SK-03-92. The method was developed using the information obtained from a scouting gradient of 5%–100% acetonitrile over 35 min. A UV spectrum of SK-03-92 was obtained from the scouting gradient and the observed maximum for SK-03-92 was 335 nm, with a local maximum of 224 nm also observed. The 335 nm maximum wavelength was used for the quantitation of SK-03-92, and the 224 nm local maximum wavelength was used to monitor for possible formation of degradation products not visible at the 335 nm wavelength. Flow rate was 0.750 mL/min and injection volume was 10 μL. The mobile phase was 62% acetonitrile (Fisher, Hanover Park, IL, USA):38% water (Milli-Q UV plus) and the isocratic program was 62% acetonitrile:38% water for 20 min. Acquisition time was 10 min and room temperature retention time was 5.4 min. Standards of SK-03-92 were prepared in acetonitrile at concentrations of 0.05–0.005 mg/mL.

In the next data set the test system is murine monocytic J774A.1. Description: MTT cytotoxicity assay, J774A.1. It counts as cell-based. The following applies: Mus musculus, J774.A1; J774A.1 cells. As for the experimental part: (§2) Initial in vitro safety testing of SK-03-92 was performed with an MTT [3-(4,5-dimethylthiazol-2-yl)-2,5-diphenyltetrazolium bromide] assay (9, American Type Culture Collection) for several tissue culture cell lines (murine monocytic J774A.1, human monocytic U937, human kidney epithelial 293, and human bladder epithelial T24) using mitomycin C (Sigma, St. Louis, MO, USA) and DMSO alone as positive and negative controls, respectively. Assays were done a total of three times per tissue culture cell line.
In general terms: Tetrazolium assays rely on reduction of a dye to a coloured formazan, in cell work by metabolically active cells.

Data set [5] is described as follows: Five-day multi-dose oral PK study. The following applies: female, BALB/c, mouse, plasma, mice, five-day oral 100 μg/g each day. It counts as in vivo. Here is the method:
as §1

The subject of data set [6] is human bladder epithelial T24. Description: MTT cytotoxicity assay, T24. The following applies: T-24, T24 cells. The format is cell-based. As for the experimental part: as §2
Data set [7] concerns several mammalian cell lines. Description: MTT cytotoxicity, cell lines overall and therapeutic index. Conditions: read-out: IC50 in vitro. The format is cell-based. Here is the method:
as §2

The nature of data set [8]: Two-week multi-dose oral PK study. The format is in vivo. As for the experimental part: as §1
The next data set has as its system Swiss Webster mice. Description: Initial safety testing in mice, escalating ip dosing (OECD). The format is in vivo. As for the experimental part:
Three female 5–9 week old Swiss Webster mice (Harlan) per drug concentration were injected intraperitoneally (ip) with increasing concentrations of SK-03-92: 5, 50, 300, and 2000 mg/kg according to OECD [10]. The lowest concentration of drug was used first. Overt toxicity (e.g., altered gait, ungroomed, significant weight loss) was monitored.

A further data set concerns human monocytic U937. Description: MTT cytotoxicity assay, U937. The format is cell-based. Conditions: U-937, U937 cells. Here is the method: as §2
The test system of data set [9] is human kidney epithelial 293. Description: MTT cytotoxicity assay, 293. The format is cell-based. The following applies: cell line printed as 292. Here is the method:
as §2

The next data set concerns mice, rats, and humans. Conditions: cited from earlier work.
The conditions of data set [10]: cited from earlier work.

The term half-life denotes the time in which the quantity being followed falls by half. The Tmax is the time from dosing to the highest level. As usually defined, the Cmax is the highest concentration seen after dosing. A word on the MIC50: it is the lowest concentration that inhibits either 50% of growth or 50% of the strains tested, depending on the study. The MIC90 is an inhibitory concentration at the 90% level, which refers to growth in some studies and to a panel of isolates in others. One may read the IC50 as the midpoint of a concentration-inhibition curve. `COc1cc(O)cc(/C=C/c2cc3ccccc3s2)c1` [SK-03-92, (E)-3-(2-(benzo[b]thiophen-2-yl)vinyl)-5-methoxyphenol]: the fraction unbound in the data set on plasma proteins is 0.156. The gross adverse effects result in data set [1] (multi-dose analysis) was “no gross adverse effects”. This compound also gave a maximum plasma concentration in data set [1] (two 51-μg/g doses per day four hours apart for three days) of 2.12 µg/mL. Further, the concentration at 30 min in the data set “Single dose PK assay, ip” (female, BALB/c, mouse, plasma, 100 μg/g, 30 min after ip injection) came out at 1640 ng/mL; in [2] (female, BALB/c, mouse, plasma, 100 μg/g oral, by 30 min, read-out: level detected in mouse plasma), 126 ng/g. Also, the concentration at 90 min in “Single dose PK assay, ip” (female, BALB/c, mouse, plasma, 100 μg/g, within 90 min of ip injection) turned out to be 149 ng/mL. Besides, the half-life in “Single dose PK assay, ip” (female, BALB/c, mouse, plasma, intraperitoneal, oral, 100 μg/g, single dose 100 μg/g, route not given, read-out: drug half-life) was 20 to 30 min; in the data set “Single dose PK assay, ip” (female, BALB/c, mouse, plasma, ip, 100 μg/g, ip, single dose 100 μg/g, read-out: Half-Life) it was 22 min; in “Single dose PK assay, ip” (ip, single dose 100 μg/g) it was 22.46 ± 17.81 min; in data set [2] (female, BALB/c, mouse, plasma, po, 100 μg/g, oral, single dose 100 μg/g, read-out: Half-Life), 30 min; in data set [2] (oral, single dose 100 μg/g), 30.40 ± 17.81 min. The time to peak (Tmax) in the data set “Single dose PK assay, ip” (female, BALB/c, mouse, plasma, ip, single dose 100 μg/g) was 30 min; in [2] (female, BALB/c, mouse, plasma, po, 100 μg/g, oral, single dose 100 μg/g, read-out: Tmax (converted)) it was 22 min; in data set [2] (oral, single dose 100 μg/g), 21.43 ± 11.80 min. Further, the AUC(0-inf) is 1170 ng·h/mL in the data set “Single dose PK assay, ip” (female, BALB/c, mouse, plasma, ip, single dose 100 μg/g, read-out: AUCINF_obs (converted)) and 85.7 ng·h/mL in data set [2] (female, BALB/c, mouse, plasma, oral, single dose 100 μg/g, read-out: AUCINF_obs (converted)). In addition, the Cmax turned out to be 1640 ± 590 ng/mL in the data set “Single dose PK assay, ip” (female, BALB/c, mouse, ip, single dose 100 μg/g, plasma) and 370 ng/mL in data set [2] (female, BALB/c, mouse, po, 100 μg/g, orally administered, plasma). For the same compound, the “time to breakdown into metabolic byproducts” value in the data set “Single dose PK assay, ip” (after ip or oral delivery) was not above 15 min. In addition, the Cl_F_obs was 1.46 mL/min/g and 1.46 ± 0.26 mL/min/g in the data set “Single dose PK assay, ip” (ip, single dose 100 μg/g); 21.00 ± 6.71 mL/min/g in data set [2] (oral, single dose 100 μg/g). Besides, the Vz_F_obs in “Single dose PK assay, ip” (ip, single dose 100 μg/g) is 47.71 mL/g and 47.71 ± 33.25 mL/g; in [2] (oral, single dose 100 μg/g), 810.67 ± 173.87 mL/g. In addition, in the data set “Single dose PK assay, ip” (single dose 100 μg/g ip), the overt toxicity entry was “no overt toxicity”. In addition, the “time at which peak plasma concentration was achieved” value in “Single dose PK assay, ip” (single dose 100 μg/g, route not given) was in the range of 20 to 30 min. In addition, the concentration at 15 min turned out to be 740 ng/g in data set [2] (female, BALB/c, mouse, plasma, 100 μg/g oral, after 15 min, read-out: level detected in mouse plasma); 86 ng/mL in [5] (after 15 min); 144 ng/mL in data set [8] (BALB/c, mouse, plasma, 100 μg/g, mice, two-week oral administration, after 15 min). The toxicity signs entry in data set [2] (100 μg/g oral) is on record as “no toxicity signs were observed”. Also, the plasma concentrations result in [2] (75 min after oral gavage) was “negligible levels”. In addition, in [2] (oral vs ip), the “oral Cmax relative to Cmax of ip-administered drug” value is “approximately 25%”. For the same compound, the MIC50 in [3] is 1 µg/mL (≈ 3.54 µM). In addition, in [3], the MIC90 is 2 µg/mL (≈ 7.08 µM). Besides, in data set [4] (Solutol HS 15/PBS solution), the “solubility with Solutol HS 15/PBS solution” value is “less than 10%”. For the same compound, the solubility in data set [4] (aqueous buffer, PBS, read-out: Solubility in PBS) was less than 0.1 µg/mL; in [4] (aqueous with cosolvent or surfactant or cyclodextrin, 20% Solutol HS 15/80% PBS, read-out: Solubility in 20% Solutol HS 15/80% PBS), 4600 µg/mL (≈ 16300 µM); in data set [4] (organic solvent or mixture, PEG 400, read-out: Solubility in PEG 400), 9200 µg/mL (≈ 32600 µM). The IC50 (in the data set on murine monocytic J774A.1; in data set [6]; in [7]; in the data set with human monocytic U937; in [9]) was 125 µg/mL (≈ 443 µM) throughout. Moreover, the concentration at 75 min in [5] (after 75 min) was 27 ng/mL; in data set [8] (BALB/c, mouse, plasma, 100 μg/g, mice, two-week oral administration, after 75 min) it was 10 ng/mL. Further, in [8] (multi-dose oral, after two-days), the “weight loss of treated mice” value is on record as “about 1.5%”. Moreover, the “weight increase of treated mice” value in [8] (multi-dose oral, day 9) turned out to be 5.16%; in [8] (multi-dose oral, day 12), 9.75%. For the same compound, the “adverse effects / overt toxicity after single dose” value in the data set on Swiss Webster mice (2000 mg/kg IP single dose, two-week time frame, 2000 mg/kg) was “non-toxic; also recorded: did not exhibit gross toxicity”. Besides, the “overt toxicity after repeat dose” value with Swiss Webster mice (repeat dose of 2000 mg/kg a week after initial 2000 mg/kg) is on record as “no overt toxicity was observed”.

Consider `COc1cc(/C=C/c2ccc(O)cc2)cc(OC)c1` [pterostilbene], for which, in the data set on mice, rats, and humans (mice, rats, and humans), the “toxicity at high doses” value is given as “non-toxic”. For the same compound, the “half-lives in animal plasma” value in data set [10] (animal plasma) is 120 min. For the same compound, in data set [10] (animals), the plasma concentrations is less than 8 µg/mL.

In the case of `Oc1ccc(/C=C/c2cc(O)cc(O)c2)cc1` [resveratrol], the “toxicity at high doses” value in the data set on mice, rats, and humans (in vivo) is reported as “non-toxic”. Further, the “half-lives in animal plasma” value in data set [10] (in vivo) was 15 to 60 min.
